Patent US20230381142A1, “ANTILEISHMANIAL COMPOUNDS, COMPOSITIONS AND USE THEREOF” (TRUSTEES OF BOSTON UNIVERSITY, priority 2022, published 2023)

Experiment: Plasma protein binding (RED)
Type: in vitro ADME
Method: The unbound fraction of compound 1 in plasma was measured using a commercial RED (Rapid Equilibrium Dialysis) plate with inserts (Thermo) with a molecular weight membrane cut off of 8K. The relevant volume of spiked sample matrix was added into the corresponding sample chambers of the RED insert. Three volume equivalents of dialysis buffer were added to the buffer chamber. The dialysis plate was sealed and incubated at 37° C. on a plate shaker for approximately 4 h at 100 rpm. An equivalent volume was removed from each of the three buffer sample chambers and placed into its own well in a clean plate. A specific volume of control matrix was added to each buffer sample for matrix matching. Next, >3× volume of precipitation solvent (acetonitrile+internal standard) was added and the plate was centrifuged. A measured volume of the resulting supernatants was transferred into a clean plate and a specific volume of analytical grade water was added to all samples. Samples were analyzed using a compound-specific LC-MS/MS method to generate analyte peak area ratios which are representative of bound and free drug.

fraction unbound at 4 h: 0.025
Structure (SMILES): COc1ccc(N2C(=O)c3[nH]nc(CC(C)C)c3C2c2ccc(F)cc2)cc1 (racemic) [Compound 1, 4-(4-fluorophenyl)-3-isobutyl-5-(4-methoxyphenyl)-4,5-dihydropyrrolo[3,4-c]pyrazol-6(1H)-one]
